“Also recorded” adds a separate entry of the source.
Tests used:
Mesangial cells = assay: PDGF stimulated matrix synthesis (proline incorporation) in mesangial cells (Example 3); type: cell-based, rat
Excerpt: Matrix synthesis may be stimulated by platelet derived growth factor (PDGF).

rat mesangial cell line = assay: Effect on mesangial cell appearance (visual monitoring during proline assay); type: cell-based; conditions: @ 100 μM
[1] = tested on: SD rats post myocardial infarction (LAD ligation); assay: Myocardial infarct rats treated with FT011; type: in vivo
Experimental: Twenty rats underwent ligation of left anterior descending coronary artery (LAD) to induce anterior myocardial infarction (MI). Briefly, surgery performed under aseptic conditions on a heated table (37° C.) to maintain body warmth during the course of the procedure. The chest swabbed with chlorhexidine in 70% ethanol to disinfect the area. An incision made into the skin to the left of the sternum and the underlying muscle layers blunt dissected. A thoracotomy performed through the fourth to fifth intercostal space and the ribs held open using retractors to enable access to the heart. The pericardial sac surrounding the heart torn open and a 6-0 prolene suture used to ligate the LAD immediately. Visible blanching and hypokinesis of the anterior wall of the left ventricle and swelling of the left atrium are indicative of successful ligation. The control groups (sham+vehicle, sham+FT011) underwent a sham operation consisting of the same procedure except that the suture passed through the myocardium beneath the LAD without ligation.
Echocardiography was performed on all animals 2 days post surgery and randomised to sham and MI groups. Animals were re-randomised at day 7 post surgery (10 animal each) to receive: vehicle or FT011 (100 mg/kg bid gavage). Every week, systolic blood pressure (SBP) was determined in preheated conscious rats via tail-cuff plethysmography using a non-invasive blood pressure (NIBP) controller and Powerlab (AD instruments, NSW, Australia). Cardiac function was assessed by echocardiography and cardiac catheterization prior to sacrificing at day 35 post surgery for all animals.
Echocardiography, including Doppler examination, was performed using a Vivid 7 Dimension (GE Vingmed, Horten, Norway) echocardiograph with a 10 MHz phased array probe. Electrocardiographic data were acquired simultaneously. End-diastole was defined as the peak of the R wave, and end-systole was defined as the end of the T wave.
Animals were anaesthetized with pentobarbitone sodium 60 mg/kg i.p. injection. Animals underwent echocardiographic interrogation in the left recumbent position. M-mode echocardiography was performed using a parasternal short axis view at the level of the papillary muscles. Left ventricular posterior (LVPW) and anterior wall thickness (LVAW) were obtained during diastole (d) and systole (s), as were the left ventricular internal diameter at end-diastole (LVIDd) and end-systole (LVIDs). From the para-sternal short axis view, the end diastolic and end systolic cross sectional blood pool areas were measured. Fractional area change (FAC) was then calculated according to the formulae: FAC=[(end-diastolic area-end-systolic area)/end-diastolic area]*100.
The apical 4-chamber view was used to assess early and late transmitral peak diastolic flow velocity (E and A waves), using pulsed wave Doppler with a sample volume of 2 mm placed at the tips of the mitral valve leaflets. All Doppler spectra were recorded for 10 cardiac cycles at a sweep speed of 200 mm/s. All parameters were assessed using an average of three beats, and calculations were made in accordance with the American Society of Echocardiography guidelines. All data were acquired and analyzed by a single blinded observer using EchoPAC (GE Vingmed) offline processing.
Post echocardiography, animals were placed on a warming pad (37° C.), intubated using a 14 gauge catheter, and ventilated using positive pressure with a tidal volume of […] at 70 breaths per minute using room air. Animals were secured in a recumbent position and the right jugular vein was cannulated with 0.9% NaCl infused at 100 μL per hour. […] The right internal carotid was then identified and ligated cranially. A 2F miniaturized combined conductance catheter-micromanometer was inserted into the carotid artery to obtain aortic blood pressure, then advanced into the left ventricle until stable pressure volume (PV) loops were obtained.

[2] = tested on: mesangial cell line (1097); assay: TGF-β induced 3H-proline incorporation in cultured rat mesangial cells (Example 2); type: cell-based, Sprague-Dawley rats; conditions: renal mesangial cells, from 30 to 100 μM
Experimental: The anti-fibrotic effects of 3-methoxy-4-propargyloxybenzaldehyde (FT011) in a renal cell line were tested by measuring proline incorporation after transforming growth factor-β stimulation.
A well-characterized cloned mesangial cell line (1097) isolated from Sprague-Dawley rats was used between passages 30 and 40. Cells were cultured in Dulbecco's Modified Eagle's (DME) medium (Invitrogen, Grand Island, N.Y.) with heat-inactivated fetal bovine serum (FBS), 100 u/mL penicillin and 100 ug/mL streptomycin in a humidified 5% CO2 atmosphere at 37° C.
To compare the effects of tranilast and FT011 on collagen production in vitro, incorporation of tritiated proline was used. Mesangial cells were plated at low density into 24-well culture plates in DME/5% FBS and allowed to adhere overnight. The subconfluent cells were starved overnight in DME/0.5% FBS and […] L-ascorbic acid (Sigma-Aldrich). Tranilast or FT011 was then added to the wells, followed 4 hours later by L-[2,3,4,5-^3H]-proline, 0.5 μCi/well (Amersham) and TGF-β1, 5 ng/ml (R & D systems). Mesangial cells were harvested 48 hours post-stimulation, washed three times with ice cold PBS, and incubated with 10% trichloroacetic acid (TCA) for 30 minutes on ice, followed by a wash in ice cold 10% TCA. Cells were then solubilised in […] 1M NaOH. […]

[3] = MI rats, 100 mg/kg bid gavage from day 7, day 35 post surgery
[4] = MI rats, 100 mg/kg bid gavage, echocardiography
[5] = MI rats, 100 mg/kg bid gavage, listed as FT011, 100 mg/kg

Effect on mesangial cell appearance (rat mesangial cell line): stress @
Compound: C#CCOc1ccc(/C=C/C(=O)Nc2ccccc2C(=O)O)cc1OC [Analogue 11]
PDGF-stimulated matrix synthesis (proline incorporation) (Mesangial cells; 30 and 100 μM): inhibits
potency at reducing proline incorporation compared with tranilast (Mesangial cells; PDGF stimulation, 30 μM): more potent
Myocardial infarct size, treated versus untreated MI groups ([1]; 100 mg/kg bid gavage, P=0.36): similar
LVED ([1]; MI rats, 100 mg/kg bid gavage): 0.53 ± 0.04 mL
LVES ([1]; MI rats, 100 mg/kg bid gavage): 0.15 ± 0.02 mL
LV/BW [1, 3]: 0.22 ± 0.004
RV/BW [1, 3]: 0.048 ± 0.002
adverse LV remodelling on echocardiography (LVIDd, LVIDs, FAC, E:A ratio, deceleration time) ([1]; MI rats, 100 mg/kg bid gavage, 5 weeks post MI): significantly attenuated
Deceleration time [1, 4]: 38.64 ± 1.2 ms
E:A ratio [1, 4]: 2.00 ± 0.26
FAC % [1, 4]: 42.69 ± 2.3 %
LVIDd [1, 4]: 0.92 ± 0.03 cm
LVIDs [1, 4]: 0.70 ± 0.03 cm
collagen subtype I and III immunostaining in non-infarct zone [1, 5]: reduction in immunostaining; also recorded: attenuated
infiltration of ED-1 positive macrophages in non-infarct zone [1, 5]: reduction in macrophage number; also recorded: attenuated
interstitial fibrosis in non-infarct zone (Masson's trichrome) [1, 5]: marked reduction; also recorded: attenuated
proline incorporation after TGF-β stimulation [2]: significantly reduce

— patent US9561201B2, “Therapeutic compounds” (Fibrotech Therapeutics Pty Ltd, priority 2006, dated 2017)
